Data taken from US20260258064A1 (SIRONAX LTD., priority 2023, published 2026).

What follows are compounds tested against T1, SARM1 (50-724) (Homo sapiens, UniProt Q6SZW1) (assay: SARM1 (50-724) enzymatic assay (LC-MS/MS)). Details: Purified SARM1 (50-724) 2 nM, NMN as activator, NAD+ as substrate, 1 h at room temperature, read-out: IC50 (SARM1 inhibitory activity).
T1 construct: Purified SARM1 (50-724) with a final concentration of 2 nM was pre-incubated with a test compound
T1 sequence (Q6SZW1 50-724): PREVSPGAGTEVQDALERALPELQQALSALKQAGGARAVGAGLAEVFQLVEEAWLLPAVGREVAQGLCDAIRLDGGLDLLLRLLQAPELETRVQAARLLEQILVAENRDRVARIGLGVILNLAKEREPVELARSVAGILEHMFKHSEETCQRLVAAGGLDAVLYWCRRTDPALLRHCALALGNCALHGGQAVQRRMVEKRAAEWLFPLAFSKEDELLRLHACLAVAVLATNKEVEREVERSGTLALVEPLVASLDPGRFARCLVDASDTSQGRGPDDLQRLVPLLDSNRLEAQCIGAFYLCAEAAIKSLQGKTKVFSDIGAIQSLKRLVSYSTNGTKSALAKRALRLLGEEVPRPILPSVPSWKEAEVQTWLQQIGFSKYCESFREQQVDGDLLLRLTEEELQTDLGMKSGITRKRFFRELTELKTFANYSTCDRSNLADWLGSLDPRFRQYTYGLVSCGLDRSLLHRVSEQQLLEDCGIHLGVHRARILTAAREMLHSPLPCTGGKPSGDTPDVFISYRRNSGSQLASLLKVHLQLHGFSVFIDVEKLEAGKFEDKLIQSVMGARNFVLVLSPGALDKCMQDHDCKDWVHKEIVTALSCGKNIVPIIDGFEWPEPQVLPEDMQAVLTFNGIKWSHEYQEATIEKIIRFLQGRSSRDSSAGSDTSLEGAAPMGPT
Type: biochemical
Outline: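 Human SARM1 (50-724), 2 nM, pre-incubated 15 min at room temperature with compound in Dulbecco's PBS. Reaction started with 200 µM NMN (activator) plus […] NAD^+ substrate, run 1 h at room temperature, quenched with 70% acetonitrile. Turnover quantified by LC-MS/MS; IC50 reported.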

| IC50 [nM] | Compound |
| --- | --- |
| 100 to 500 | CC(C)(N)c1ccc2[nH]c(-c3nncn3-c3cnccc3C(F)(F)F)nc2c1 [Compound 448, 2-[2-[4-[4-(trifluoromethyl)-3-pyridyl]-1,2,4-triazol-3-yl]-1H-benzimidazol-5-yl]propan-2-amine] |
| 100 to 500 | CC1(c2ccc3[nH]c(-c4nncn4-c4cccc(F)c4Cl)nc3c2)CS(=O)(=O)C1 [Compound 178, 3-(2-(4-(2-chloro-3-fluorophenyl)-4H-1,2,4-triazol-3-yl)-1H-benzo[d]imidazol-5-yl)-3-methylthietane 1,1-dioxide] |
| > 1000 | FC(F)(F)c1ccc2[nH]c([C@H]3COC[C@@H]3c3ccccc3)nc2c1 (single isomer, unassigned) [Compound 350] |
| 100 to 500 | Cc1cc(-c2ccc3[nH]c(-c4nncn4-c4cccc(Cl)c4Cl)nc3c2)sn1 [Example 80, 5-(2-(4-(2,3-dichlorophenyl)-4H-1,2,4-triazol-3-yl)-1H-benzo[d]imidazol-5-yl)-3-methylisothiazole] |
| ≤ 100 | Oc1ccc(Cl)c(-n2cnnc2-c2nc3cc(C(F)(F)F)ccc3[nH]2)n1 [Example 115] |
| ≤ 100 | CC(C)(C)c1ccc2[nH]c(-c3nncn3-c3cnccc3C(F)(F)F)cc2n1 [Compound 348, 5-(tert-butyl)-2-(4-(4-(trifluoromethyl)pyridin-3-yl)-4H-1,2,4-triazol-3-yl)-1H-pyrrolo[3,2-b]pyridine] |
| 500 to 1000 | FC(F)(F)c1ccc2[nH]c(-c3n[nH]cc3-c3cccc(Cl)c3Cl)nc2c1 [Example 43] |
| 100 to 500 | O=c1nc(-c2nc3cc(C(F)(F)F)ccc3[nH]2)c(-c2cccc(Cl)c2Cl)c[nH]1 [Example 54] |
| ≤ 100 | Fc1c(C2CC2)cc(F)c2[nH]c(-c3nncn3-c3cnccc3C(F)(F)F)nc12 [Compound 300, 5-cyclopropyl-4,7-difluoro-2-(4-(4-(trifluoromethyl)pyridin-3-yl)-4H-1,2,4-triazol-3-yl)-1H-benzo[d]imidazole] |
| 100 to 500 | Clc1cccc(-n2cnnc2-c2nc3cc(-c4cnn[nH]4)ccc3[nH]2)c1Cl [Example 56, 2-(4-(2,3-dichlorophenyl)-4H-1,2,4-triazol-3-yl)-5-(1H-1,2,3-triazol-5-yl)-1H-benzo[d]imidazole] |
| ≤ 100 | OCCOCc1nnc(-c2nc3cc(C(F)(F)F)ccc3[nH]2)n1-c1cccc(Cl)c1Cl [Example 126] |
| 100 to 500 | Cc1nccc(-n2cnnc2-c2nc3cc(C(F)(F)F)ccc3[nH]2)c1Cl [Example 71] |
| ≤ 100 | OC1CN(Cc2nnc(-c3nc4cc(C(F)(F)F)ccc4[nH]3)n2-c2cccc(Cl)c2Cl)C1 [Compound 144, 1-((4-(2,3-dichlorophenyl)-5-(5-(trifluoromethyl)-1H-benzo[d]imidazol-2-yl)-4H-1,2,4-triazol-3-yl)methyl)azetidin-3-ol] |
| ≤ 100 | N#Cc1cccc(-n2cnnc2-c2nc3cc(C(F)(F)F)ccc3[nH]2)c1Cl [Compound 159, 2-chloro-3-(3-(5-(trifluoromethyl)-1H-benzo[d]imidazol-2-yl)-4H-1,2,4-triazol-4-yl)benzonitrile] |
| 100 to 500 | COc1cc(-c2ccccc2Cl)c(-c2nc3cc(C(F)(F)F)ccc3[nH]2)nn1 [Compound 405, 2-(4-(2-chlorophenyl)-6-methoxypyridazin-3-yl)-5-(trifluoromethyl)-1H-benzo[d]imidazole] |
| ≤ 100 | Fc1cc(C2(c3nccs3)CC2)cc2nc(-c3nncn3-c3cnccc3C(F)(F)F)[nH]c12 [Compound 422, 2-[1-[7-fluoro-2-[4-[4-(trifluoromethyl)-3-pyridyl]-1,2,4-triazol-3-yl]-1H-benzimidazol-5-yl]cyclopropyl]thiazole] |
| ≤ 100 | FC(F)(F)c1cnc2[nH]c(-c3nncn3-c3cnccc3C(F)(F)F)cc2n1 [Compound 356, 2-(trifluoromethyl)-6-(4-(4-(trifluoromethyl)pyridin-3-yl)-4H-1,2,4-triazol-3-yl)-5H-pyrrolo[2,3-b]pyrazine] |

| IC50 [nM] | Compound |
| --- | --- |
| ≤ 100 | CS(=O)(=O)Cc1nnc(-c2nc3cc(C4(F)CC4)cc(F)c3[nH]2)n1-c1cccc(F)c1Cl [Compound 203, 2-(4-(2-chloro-3-fluorophenyl)-5-((methylsulfonyl)methyl)-4H-1,2,4-triazol-3-yl)-7-fluoro-5-(1-fluorocyclopropyl)-1H-benzo[d]imidazole] |
| ≤ 100 | CC1(c2ccc3[nH]c(-c4nncn4-c4ccncc4OC(F)(F)F)nc3c2)CC1 [Compound 224, 5-(1-methylcyclopropyl)-2-(4-(3-(trifluoromethoxy)pyridin-4-yl)-4H-1,2,4-triazol-3-yl)-1H-benzo[d]imidazole] |
| ≤ 100 | Cc1c(Cl)ccnc1-n1cnnc1-c1nc2cc(C(F)(F)F)ccc2[nH]1 [Example 67] |
| ≤ 100 | CS(=O)(=O)CCc1cc(-n2cnnc2-c2nc3cc(C(F)(F)F)ccc3[nH]2)c(OC(F)(F)F)cn1 [Compound 254, 2-(4-(2-(2-(methylsulfonyl)ethyl)-5-(trifluoromethoxy)pyridin-4-yl)-4H-1,2,4-triazol-3-yl)-5-(trifluoromethyl)-1H-benzo[d]imidazole] |
| ≤ 100 | Fc1cccc(-n2cnnc2-c2nc3cc(C(F)(F)F)ccc3[nH]2)c1Cl [Example 59, 2-(4-(2-chloro-3-fluorophenyl)-4H-1,2,4-triazol-3-yl)-5-(trifluoromethyl)-1H-benzo[d]imidazole] |
| ≤ 100 | COC(=O)C(C)c1ccc2[nH]c(-c3nncn3-c3cccc(Cl)c3Cl)nc2c1 (stereo not shown) [Example 101, methyl 2-(2-(4-(2,3-dichlorophenyl)-4H-1,2,4-triazol-3-yl)-1H-benzo[d]imidazol-5-yl)propanoate] |
| ≤ 100 | FC(F)(F)c1ccc2[nH]c(-c3nncn3-c3c(Cl)ccc4[nH]ncc34)nc2c1 [Compound 209, 5-chloro-4-(3-(5-(trifluoromethyl)-1H-benzo[d]imidazol-2-yl)-4H-1,2,4-triazol-4-yl)-1H-indazole] |
| 100 to 500 | CS(=O)(=O)Cc1nnc(-c2nc3cc(C(F)(F)F)cc(F)c3[nH]2)n1-c1cccc(F)c1Cl (single isomer, unassigned) [Compound 183, 2-(4-(2-Chloro-3-fluorophenyl)-5-((methylsulfonyl)methyl)-4H-1,2,4-triazol-3-yl)-7-fluoro-5-(trifluoromethyl)-1H-benzo[d]imidazole] |
| 100 to 500 | Oc1cc(-c2ccccc2Cl)c(-c2nc3cc(C(F)(F)F)ccc3[nH]2)nn1 [Compound 406, 5-(2-chlorophenyl)-6-(5-(trifluoromethyl)-1H-benzo[d]imidazol-2-yl)pyridazin-3-ol] |
| ≤ 100 | NC(=O)C(F)(F)c1ccc2[nH]c(-c3nncn3-c3ccc(F)c(F)c3Cl)nc2c1 [Compound 463, 2-(2-(4-(2-chloro-3,4-difluorophenyl)-4H-1,2,4-triazol-3-yl)-1H-benzo[d]imidazol-5-yl)-2,2-difluoroacetamide] |
| ≤ 100 | CS(=O)(=O)Cc1nnc(-c2nc3cc(C(F)(F)F)cc(F)c3[nH]2)n1-c1cccc(Cl)c1Cl (single isomer, unassigned) [Compound 187, 2-(4-(2,3-Dichlorophenyl)-5-((methylsulfonyl)methyl)-4H-1,2,4-triazol-3-yl)-7-fluoro-5-(trifluoromethyl)-1H-benzo[d]imidazole] |
| ≤ 100 | Cc1ccc2[nH]c(-c3nncn3-c3cccc(Cl)c3Cl)nc2c1C [Example 93, 2-(4-(2,3-dichlorophenyl)-4H-1,2,4-triazol-3-yl)-4,5-dimethyl-1H-benzo[d]imidazole] |
| 100 to 500 | Cc1cnn(C)c1-c1ccc2[nH]c(-c3nncn3-c3cccc(Cl)c3Cl)nc2c1 [Example 81, 2-(4-(2,3-dichlorophenyl)-4H-1,2,4-triazol-3-yl)-5-(1,4-dimethyl-1H-pyrazol-5-yl)-1H-benzo[d]imidazole] |
| ≤ 100 | Fc1cc(C(F)(F)F)cc2nc(-c3nncnc3-c3cnccc3C(F)(F)F)[nH]c12 [Compound 336, 7-fluoro-5-(trifluoromethyl)-2-(5-(4-(trifluoromethyl)pyridin-3-yl)-1,2,4-triazin-6-yl)-1H-benzo[d]imidazole] |
| ≤ 100 | Fc1cc(C(F)(F)F)cc2nc(-c3nnccc3-c3cnccc3C(F)(F)F)[nH]c12 [Compound 303, 7-Fluoro-5-(trifluoromethyl)-2-(4-(4-(trifluoromethyl)pyridin-3-yl)pyridazin-3-yl)-1H-benzo[d]imidazole] |
| > 1000 | CN1CCC(n2cnnc2-c2nc3cc(C(F)(F)F)ccc3[nH]2)C1 (stereo not shown) [Compound 202, 2-(4-(1-methylpyrrolidin-3-yl)-4H-1,2,4-triazol-3-yl)-5-(trifluoromethyl)-1H-benzo[d]imidazole] |
| > 1000 | FC(F)(F)Cc1ccccc1-n1cnnc1-c1nc2cc(C(F)(F)F)ccc2[nH]1 [Compound 248, 2-(4-(2-(2,2,2-trifluoroethyl)phenyl)-4H-1,2,4-triazol-3-yl)-5-(trifluoromethyl)-1H-benzo[d]imidazole] |
